Experimental data reported in PMC6104039 (Nature Communications, 2018).

What was measured:
[1] = system: SkM; test: Real-time PCR of respiratory complex subunits and regulators of mitochondrial biogenesis in SkM; type: in vivo, mice
Protocol: PCR (40 cycles) was performed on a LightCycler 480 (Roche) using SensiFAST SYBR mastermix (Bioline). For quantification of CerS1 and CerS2 expression, total RNA was purified from mouse tissues with TRIzol reagent (Sigma-Aldrich), followed by DNase treatment (Promega), and reverse transcribed using random hexamer primers with FirstStrand cDNA synthesis kit (Roche), according to manufacturer’s instructions. CerS1 and CerS2 gene expression was determined using a standard curve of Ct against input cDNA, and normalised to 18s RNA. For mitochondrial genes and transcriptional regulators in SkM, total RNA was prepared with TRIzol, and oligo dT primer was used for reverse transcription. Relative gene expression was determined using the ΔΔCt method, with 36B4 and Rpl13 as the reference genes. Samples with excessively high Ct values (Ct > 30 for the housekeeping genes) were removed from data analysis (two samples for Fig. 6a, four samples for Fig. 6g). Gene-specific primers were as follows: […]

[2] = system: SkM homogenates; test: 14C-palmitate oxidation in SkM homogenates of treated mice; type: in vivo; conditions: chow and HFD-fed mice, 6 weeks
Protocol: Tibialis muscles were homogenized in 19 volumes of 250 mM sucrose, 10 mM Tris-HCl and 1 mM EDTA, pH 7.4.

[3] = system: C57BL6/J mice; test: Body composition (EchoMRI) and fat pad weights in mice on chow or HFD; type: in vivo
Protocol: Male C57BL6/J mice were obtained from the Animal Resources Centre in Perth (WA, Australia). […] Treatment was commenced at the same time as mice were randomised to dietary groups. The experiments were approved by the UNSW animal care and ethics committee (ACEC 15/48B), and followed guidelines issued by the National Health and Medical Research Council of Australia.
Body composition (lean mass and fat mass) was determined by EchoMRI-900 Body Composition Analyser (EchoMRI Corporation Pte Ltd, Singapore) in accordance with the manufacturer’s instructions.

## C[C@@](N)(CO)CCc1ccc(OCc2ccc(Cl)c(Cl)c2)cc1 [P053, (S)-2-amino-4-(4-(3,4-dichlorobenzyloxy)phenyl)-2-methylbutan-1-ol]
[1]
  expression of Gabp1α and Nfe2l2: significantly increased
  genes encoding respiratory complex subunits (Co-2, Cytb, Atp6, Ndufb5, Atp5o, Cycs, Cox5b): significant up-regulation
[2]
  oxidation of 14C-palmitate in muscle homogenates: increased oxidation
[3]; HFD, 5 mg/kg, 4–6 weeks
  whole-body fat mass and weight of individual white adipose depots: significantly reduced
[3]; both fat pads (inguinal and epididymal)
  reduction of the gain in fat pad mass on a HFD: 44%
[3]; with P053 treatment
  gain in epididymal fat pad weight, HFD compared to chow: 0.29 g
  gain in inguinal fat pad weight, HFD compared to chow: 0.15 g
